Type in all cases: cell-based
Experiment [1] concerns NCI-H82 (human small cell lung cancer cell). Briefly: Cell viability assay (Promega CellTiter-Glo), inhibitory effect on NCI-H82. Particulars: 72 h, 3 days of culture. An outline of the steps: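 After 3 days of culture with graded compound doses, ATP-based luminescence (CellTiter-Glo) gave the viability of human small cell lung cancer NCI-H82 cells, maintained in 10% FBS-containing RPMI1640. IC50 is the 50% inhibiting concentration.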

Experiment [2] concerns SW48 (human colon adenocarcinoma cell). Briefly: Cell viability assay (Promega CellTiter-Glo), inhibitory effect on SW48. As to conditions: 72 h, 3 days of culture. Summed up: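 IC50 derived from CellTiter-Glo ATP luminescence after 3-day culture with a compound dilution series; cells kept in Leibovitz's L-15 plus 10% fetal bovine serum.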
(In general: In ATP-based viability assays light output follows the ATP content of the culture.)

In experiment [3] the test system is G-401 (human renal carcinoma Wilms cell). Nature of the experiment: Cell viability assay (Promega CellTiter-Glo), inhibitory effect on G-401. As to conditions: 72 h, 3 days of culture. Summed up: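 IC50 comes from luminescent ATP-based viability measured after 3 days of exposure to serially diluted compound. Cultures were kept in McCoy's 5a medium containing 10% fetal bovine serum.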

For experiment [4], the system named is MDA-MB-453 (breast cancer cell). Briefly: Cell viability assay (Promega CellTiter-Glo), inhibitory effect on MDA-MB-453. Particulars: Homo sapiens, 72 h, 3 days of culture. An outline of the steps:
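IC50 comes from ATP-based CellTiter-Glo viability measured after 3 days of exposure to graded compound concentrations. Cultures were kept in L-15 medium containing 10% fetal bovine serum.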

The subject of experiment [5] is CFPAC-1 (human pancreatic cancer cell). Briefly: Cell viability assay (Promega CellTiter-Glo), inhibitory effect on CFPAC-1. Particulars: 72 h, 3 days of culture. Summed up:
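Viability readout via ATP content (CellTiter-Glo) after 3-day exposure to gradient-diluted compounds; IC50 reported. Cells: CFPAC-1, grown in IMDM plus 10% fetal bovine serum.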

Experiment [6] has as its system 786-O (clear cell renal cell adenocarcinoma cell). Nature of the experiment: Cell viability assay (Promega CellTiter-Glo), inhibitory effect on 786-O. As to conditions: Homo sapiens, 786-0, 72 h, 3 days of culture. Summed up:
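Cell viability determined from ATP content (CellTiter-Glo) after 3-day exposure to compound dilution series, giving IC50. Cells: 786-O clear cell renal adenocarcinoma line in 10% FBS-containing RPMI1640 (+P/S).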

The subject of experiment [7] is SF126 (human glioblastoma multiforme cell). Nature of the experiment: Cell viability assay (Promega CellTiter-Glo), inhibitory effect on SF126. An outline of the steps:
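IC50 reflects 50% loss of CellTiter-Glo ATP signal in SF126 glioblastoma cells. Cells were cultured in 10% FBS-containing EMEM and treated with serially diluted compound for 3 days.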

The test system of experiment [8] is GB-1 (human brain glioblastoma cell). Nature of the experiment: Cell viability assay (Promega CellTiter-Glo), inhibitory effect on GB-1. Particulars: 72 h, 3 days of culture. Summed up: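 Intracellular ATP measured by CellTiter-Glo served as the viability readout for IC50, taken 3 days after adding gradient-diluted compound. Cells were kept in 10% FBS-containing DMEM.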

The subject of experiment [9] is Kelly (brain neuroblastoma cell). Briefly: Cell viability assay (Promega CellTiter-Glo), inhibitory effect on Kelly. As to conditions: Homo sapiens, 72 h, 3 days of culture, read-out: inhibitory effect on brain cell line Kelly (IC50). The method, then: (§1) The inhibitory effect of the compounds prepared in the Examples of the present invention on various brain tumor cell lines was detected using cell viability assay reagent.
(§2) Cell viability was detected using the Promega CellTiter-Glo kit, cell viability was determined by directly measuring intracellular ATP content. In the experiment, the IC50 value of the compounds prepared in the Examples of the present invention on various brain tumor cell lines was detected.
(§3) Each tumor cell was cultured in relevant medium. After cell passage, the gradient diluted compounds prepared in the Examples of the present invention was added. After 3 days of culture, the relevant IC50 (50% inhibiting concentration) was measured. The name, source and culture conditions of each tumor cell line were as follows:
Cell line Kelly (ECACC, No. 92110411) was cultured in 10% fetal bovine serum and 2 mM glutamine-containing RPMI1640 medium.

Experiment [10] deals with NB-1 (brain neuroblastoma cell). Nature of the experiment: Cell viability assay (Promega CellTiter-Glo), inhibitory effect on NB-1. As to conditions: Homo sapiens, 72 h, 3 days of culture, read-out: inhibitory effect on brain cell line NB-1 (IC50). The method, then:
as §1, §2, §3
Cell line NB-1 (ATCC, No. HTB-131) was cultured in 10% fetal bovine serum-containing Leibovitz's L-15 medium (+P/S).

In experiment [11] the test system is D341 Med (cerebellar medulloblastoma cell). Nature of the experiment: Cell viability assay (Promega CellTiter-Glo), inhibitory effect on D341 Med. Particulars: Homo sapiens, 72 h, 3 days of culture, read-out: inhibitory effect on brain cell line D341 Med (IC50). As for the experimental part:
as §1, §2, §3
Cell line D341 Med (ATCC, No. HTB-187) was cultured in 20% fetal bovine serum-containing EMEM medium (+P/S).

Experiment [12] relates to Con-NCI-H82 cell (NCI-H82 transfected with empty virus vector). Nature of the experiment: Cell viability assay (Promega CellTiter-Glo), inhibitory effect on Con-NCI-H82 cell. Particulars: Homo sapiens; NCI-H82 transfected with empty virus vector (control); CellTiter-Glo; read-out: inhibitory effect on Con-NCI-H82 (IC50). An outline of the steps: (§4)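 Viability measured by CellTiter-Glo in three NCI-H82 variants: empty-vector control, viral NNMT overexpression, and viral shRNA DNMT1 knockdown, each checked by Western blot.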

In experiment [13] the test system is ov-NNMT NCI-H82 cell (NNMT protein-overexpressing NCI-H82). Briefly: Cell viability assay (Promega CellTiter-Glo), inhibitory effect on ov-NNMT NCI-H82 cell. As to conditions: Homo sapiens. An outline of the steps: as §4
The test system of experiment [14] is sh-DNMT1 NCI-H82 cell (DNMT1 knocked down NCI-H82). Briefly: Cell viability assay (Promega CellTiter-Glo), inhibitory effect on sh-DNMT1 NCI-H82 cell. Particulars: Homo sapiens, NCI-H82 with DNMT1 knocked down by shRNA. An outline of the steps:
as §4

Where [15] appears, read: 72 h, SF-126, 3 days of culture, Table 3, read-out: inhibitory effect on SF-126 (IC50).
The mark [16] stands for this setting: SF-126, 72 h, SF126, 3 days of culture, Table 4, read-out: inhibitory effect on brain cell line SF126 (IC50).
Where [17] appears, read: Table 3, read-out: inhibitory effect on GB-1 (IC50).
[18] abbreviates: Table 4, read-out: inhibitory effect on brain cell line GB-1 (IC50).

Molecules are shown by their SMILES. Read-outs that look alike come from different tables or passages of the source.

One may read the IC50 as the concentration at which inhibition is half-maximal. As to `CCCCCCCc1c2[n+](cc3c(OC)c(OC)ccc13)CCc1cc3c(cc1-2)OCO3` [compound AB31760], the IC50 came to 0.15 µM in experiment [1]; 0.21 µM in experiment [2]; 0.15 µM in experiment [3]; 0.25 µM in experiment [4]; 2.71 µM in experiment [5]; 1.6 µM in experiment [6]. Besides, the half-inhibitory concentration (IC50) in [7] (setting [15]) turned out to be 3.89 µM; in experiment [7] (setting [16]) it was 3.89 µM; in [8] (setting [17]), 3.67 µM; in experiment [8] (setting [18]) it was 3.67 µM; in [9] it was 0.23 µM; in experiment [10], 0.09 µM. Besides, the IC50 in experiment [11] was found to be 0.7 µM; in experiment [12], 0.15 µM; in [13], 0.35 µM; in [14], 0.71 µM.

For `COc1ccc2c(CCC(C)C)c3[n+](cc2c1OC)CCc1cc2c(cc1-3)OCO2` [compound AB31765], the IC50 in experiment [1] was found to be 1.34 µM; in [2], 1.16 µM; in experiment [3], 1.27 µM; in experiment [4], 1.07 µM; in experiment [5] it was 21.7 µM; in [6], 9.09 µM. The half-inhibitory concentration (IC50) in [7] (setting [15]) turned out to be 9.8 µM; in experiment [7] (setting [16]) it was 9.8 µM; in experiment [8] (setting [17]), 14.8 µM; in [8] (setting [18]) it was 14.8 µM; in experiment [9] it was 1.29 µM; in experiment [10] it was 0.3 µM. The IC50 in [11] worked out at 1.63 µM; in [12], 1.34 µM; in experiment [13] it was 2.88 µM; in [14] it was 4.05 µM.

Regarding `CCCCCCc1c2c(OC)c(OC)ccc2cc2[n+]1CCc1cc3c(cc1-2)OCO3` [compound AB31767], the half-inhibitory concentration (IC50) in [1] stood at 0.26 µM; in experiment [2], 0.37 µM; in [3] it was 0.18 µM; in experiment [4], 0.27 µM; in [5], 4.31 µM; in experiment [6] it was 2.1 µM. In addition, the half-maximal inhibitory concentration (IC50) is 3.7 µM in experiment [7] (setting [15]); 3.7 µM in [7] (setting [16]); 3.61 µM in experiment [8] (setting [17]); 3.61 µM in experiment [8] (setting [18]); 0.3 µM in [9]; 0.12 µM in experiment [10]. For the same compound, the IC50 in experiment [11] came to 0.57 µM; in experiment [12] it was 0.26 µM; in [13], 0.65 µM; in experiment [14] it was 0.98 µM.

Take `COc1ccc2cc3[n+](cc2c1OC(=O)CC12CC4CC(CC(C4)C1)C2)CCc1cc2c(cc1-3)OCO2` [compound AB31771]: the IC50 in [1] is 1.87 µM; in experiment [2] it was 1.37 µM; in [3] it was 2.04 µM; in experiment [4], 0.35 µM; in experiment [5] it was 17.1 µM; in [6] it was 20.8 µM. The 50% inhibitory concentration (IC50) is 15.7 µM in experiment [7] (setting [15]); 15.7 µM in [7] (setting [16]); 11.2 µM in experiment [8] (setting [17]); 11.2 µM in experiment [8] (setting [18]); 2.21 µM in experiment [9]; 1.04 µM in [10]. Also, the IC50 in [11] came to 1.66 µM; in [12], 1.87 µM; in [13] it was 3.94 µM; in [14], 5.81 µM.

For `COc1ccc2c(CCc3ccccc3)c3[n+](cc2c1OC)CCc1cc2c(cc1-3)OCO2` [compound AB31780], the IC50 was 0.66 µM in experiment [1]; 0.79 µM in [2]; 0.88 µM in [3]; 0.9 µM in [4]; 17.9 µM in [5]; 8.05 µM in experiment [6]. Further, the IC50 in experiment [7] (setting [15]) was 9.75 µM; in experiment [7] (setting [16]), 9.75 µM; in experiment [8] (setting [17]), 12.6 µM; in experiment [8] (setting [18]), 12.6 µM; in experiment [9], 1.16 µM; in [10], 0.23 µM. Further, the IC50 turned out to be 1.88 µM in [11], 0.66 µM in experiment [12], 1.52 µM in [13] and 1.98 µM in experiment [14].

In the case of `COc1ccc2c(CCCc3ccccc3)c3[n+](cc2c1OC)CCc1cc2c(cc1-3)OCO2` [compound AB31781], the IC50 in experiment [1] turned out to be 0.33 µM; in experiment [2], 0.4 µM; in [3] it was 0.37 µM; in experiment [4] it was 0.76 µM; in [5] it was 11.3 µM; in experiment [6], 5.34 µM. Besides, the IC50 in experiment [7] (setting [15]) was 7.48 µM; in [7] (setting [16]) it was 7.48 µM; in [8] (setting [17]), 8.6 µM; in experiment [8] (setting [18]), 8.6 µM; in [9], 0.73 µM; in experiment [10] it was 0.14 µM. Further, the IC50 in [11] came to 0.82 µM; in [12], 0.33 µM; in experiment [13], 1.16 µM; in [14], 1.42 µM.

For `COc1ccc2cc3[n+](cc2c1OCCCCCCBr)CCc1cc2c(cc1-3)OCO2` [compound AB31787], the IC50 turned out to be 0.34 µM in [1]; 0.48 µM in experiment [2]; 0.49 µM in [3]; 0.28 µM in [4]; 6.63 µM in experiment [5]; 4.09 µM in experiment [6]. Moreover, the IC50 in experiment [7] (setting [15]) came to 4.29 µM; in [7] (setting [16]) it was 4.29 µM; in experiment [8] (setting [17]) it was 4.23 µM; in [8] (setting [18]), 4.23 µM; in experiment [9], 0.69 µM; in [10], 0.08 µM. Besides, the IC50 in experiment [11] was 0.33 µM; in experiment [12] it was 0.34 µM; in experiment [13], 0.88 µM; in experiment [14] it was 1.31 µM.

With `COc1ccc2c(Cc3ccc(OC(F)(F)F)cc3)c3[n+](cc2c1OC)CCc1cc2c(cc1-3)OCO2` [compound AB31788], the IC50 stood at 0.71 µM in [1]; 0.69 µM in experiment [2]; 0.63 µM in experiment [3]; 1.03 µM in experiment [4]; 16.9 µM in experiment [5]; 10.8 µM in experiment [6]. Besides, the IC50 in experiment [7] (setting [15]) amounted to 10.9 µM; in experiment [7] (setting [16]), 10.9 µM; in experiment [8] (setting [17]), 16.5 µM; in experiment [8] (setting [18]), 16.5 µM; in experiment [9], 1.3 µM; in [10], 0.31 µM. Besides, the IC50 worked out at 1.88 µM in experiment [11], 0.71 µM in experiment [12], 2.42 µM in [13] and 2.95 µM in experiment [14].

The record behind these values is patent US20250195502A1, “APPLICATION OF TETRACYCLIC COMPOUND IN TREATMENT OF TUMORS” (SHANGHAI SHIJIANG BIOTECHNOLOGY CO., LTD, priority 2022, published 2025).
